No end group written: not given here. *: point of attachment. iodo = iodine substituent on Tyr (iodo-Tyr), I*
Key:
[1] = system: GM-CFC from mouse bone marrow; experiment: Effect on GM-CFC from mouse bone marrow; assay type: cell-based; design: key: +++: strong enhancement, as THF-γ2; ++ and +: medium and weak enhancement, lower than THF-γ2; ++ and +: medium and weak enhancement, lower than THF-γ2; --no activity; conditions: graded against THF-γ2; Example 1, section 1.2
Procedure: 1.2. Effect of THF-γ2 on GM-CFC From Mouse Bone Marrow. In this second bioassay, the effect of THF-γ2 and its analogs in the enhancement of the number of colonies of GM-CFC in the presence of growth factors is determined. 1.2.1. […] Tibia and femur were removed from BALB/c female mice (6-8 weeks old). The tip of the bone was cut and DMEM with 2.5% FCS was flushed into the bone using a 1 ml syringe with a 26 G needle. This procedure was repeated twice, the cells were then washed in medium and counted in the presence of trypan blue. 1.2.2 Preincubation with THF-γ2. Bone marrow cells suspension was prepared in DMEM with 2.5% FCS at a concentration of 15×10^6 /3.0 ml. THFγ2 diluted in DMEM was added in 20 μl aliquots, control cells received 20 μl DMEM. Cell suspensions in conical tissue culture tubes were incubated at 37° C./8% CO2 for 1 h. Cells were then collected, washed and counted in trypan blue. Cell suspensions were adjusted at 1×10^6 /ml. 1.2.3. GM-CFC assay. Bone marrow cells (4×10^5) are suspended in methylcellulose (0.8%), FCS (20%) and conditioned medium of 14FIL3 CB6 cell line (5%) in a total volume of 4 ml of DMEM. After vigorous mixing, the suspension is seeded into 30 mm diameter plates with the aid of a 3.0 ml syringe (21G needle, in triplicate). […] Colonies are counted using an inverted microscope at low magnification.

mouse spleen cells = experiment: ConA-induced IL-2 production; assay type: cell-based; design: key: +++: strong enhancement, as THF-γ2; ++ and +: medium and weak enhancement, lower than THF-γ2; ++ and +: medium and weak enhancement, lower than THF-γ2; --no activity; conditions: graded against THF-γ2; Example 1, section 1.1
Procedure: 1.1. ConA-Induced IL-2 Production
In this bioassay, the effect of THF-γ2 and its analogs in enhancing the secretion of ConA-induced IL-2 from murine spleen cells is determined.
1.1.1. Preparation of cells and preincubation with THF-γ2. Pooled spleen cells (10^7 cell/ml) from five female C3B6F1 (C3HeB/FeJ×C57BL/6J) mice (obtained from Jackson Labs, U.S.A.) aged 6-8 weeks are seeded in 24-well plates (Costar, Cambridge, Mass, U.S.A.). The cells are prepared in medium RPMI-1640 supplemented with penicillin (100 u/ml), streptomycin (100 μg/ml), 2 mM glutamine, 50 μM 2-mercaptoethanol (2-ME) and 20 mM HEPES. THF-γ2 in various concentrations in phosphate buffered saline (PBS), is added in 20 μl aliquots, while control cultures receive 20 μl PBS. The cell cultures are incubated for 20 h in a humidified incubator of 5% CO2 /95% air and 37° C.
1.1.2. Induction of IL-2. ConA (Concanavalin A, ConA, 3×crystalline, Bio-Makor, Ness-Ziona, Israel) is added to the wells in 1 ml fresh medium (as in 1.1.1 above) at suboptimal concentration (1-2.5 μ/ml). […]
1.1.3. […] After incubation of 48 h at 37° C./5% CO2, the proliferation is assessed by the MTT colorimetric assay (T. Mosmann, J. Immunol. Methods 65: 55-63, 1983). Results are expressed in units/ml calculated using a standard murine IL-2 preparation (according to S. Gillis et al., J. Immunol. 120: 2027, 1978).

[2] = system: murine cytomegalovirus (MCMV); conditions: MCMV-infected mice; cited from earlier work
[3] = system: viral infections of the herpes group; conditions: four patients, same protocol as the pilot study; cited from earlier work
[4] = system: patients with reduced circulating T cells; conditions: 4 ng/kg/day i.m., 18 injections in 3 weeks; cited from earlier work

Row | Substance | GM-CFC: Enhancement of the number of GMCFC from mouse bone marrow [1] | IL-2: Enhancement of ConA induced IL2 production in mouse spleen cells (mouse spleen cells) | interferon synthesis and NK cytotoxicity [2] | side effects [3] | side effects [4]
1 | Iodo-Tyr-Leu-Glu-Asp-Gly-Pro-Lys-Phe-Leu (Y(iodo)LEDGPKFL) [iodo-Y^-1 -THF-γ2] | - | ++ |  |  | 
2 | LEDGPKFL [THF-γ2, Leu-Glu-Asp-Gly-Pro-Lys-Phe-Leu] |  |  | did not affect | no deleterious side effects were documented | No side effects attributable to synthetic THF-γ2 were observed
